Measurements as given in patent publication US20230339970A1, “CASEIN KINASE 1 DELTA MODULATORS” (priority 2020, published 2023).

Tests used:
[1] = target: T1, human recombinant GST cleaved CSNK1D (Homo sapiens, UniProt P48730); assay: Purified Enzyme Assay (ADP-Glo CSNK1D Kinase Assay); assay type: biochemical; conditions: 2 nM CSNK1D; peptide substrate 150 μM; ATP 20 μM; 45 minutes at room temperature
T1 construct: GST (cleaved yes); purchased University of Dundee clone DU 19064
In short: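 GST-cleaved human recombinant CSNK1D phosphorylates peptide PLSRTL-pS-VASLPGL with ATP; compounds added in dose-response, 45 min at room temperature. ADP formed measured by ADP-Glo luminescence and converted to percent activity.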

human CSNK1D = target: T2, human CSNK1D (Homo sapiens, UniProt P48730); assay: Whole Cell nBRET CSNK1D Binding Assay; conditions: living CHO cells stably expressing human CSNK1D tagged with nanoluciferase; NanoBret tracer 130 nM; 2 hours at 37 C
T2 construct: expressed in transfected cells
T2 sequence (P48730 whole entry): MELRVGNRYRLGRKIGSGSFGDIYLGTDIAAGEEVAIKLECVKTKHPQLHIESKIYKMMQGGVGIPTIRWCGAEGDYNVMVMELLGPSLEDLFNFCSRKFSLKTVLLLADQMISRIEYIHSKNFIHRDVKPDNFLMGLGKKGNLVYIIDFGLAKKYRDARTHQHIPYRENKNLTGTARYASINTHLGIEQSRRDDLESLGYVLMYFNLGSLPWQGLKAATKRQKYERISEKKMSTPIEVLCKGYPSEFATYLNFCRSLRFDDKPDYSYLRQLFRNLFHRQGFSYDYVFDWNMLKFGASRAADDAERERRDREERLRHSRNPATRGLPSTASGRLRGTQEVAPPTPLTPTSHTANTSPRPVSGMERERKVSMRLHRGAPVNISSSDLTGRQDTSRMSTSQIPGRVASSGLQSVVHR

T1 sequence (P48730 whole entry): as above

| IC50 [1] | IC50 (human CSNK1D) | Compound |
| --- | --- | --- |
| 2 nM | 19 nM | Cc1nc2[nH]ncc2c(-c2c(-c3ccc(F)cn3)nn3c2CC(C)(C)C3)c1F [Example 240, 5-Fluoro-4-[2-(5-fluoro-2-pyridyl)-5,5-dimethyl-4,6-dihydropyrrolo[1,2-b]pyrazol-3-yl]-6-methyl-1H-pyrazolo[3,4-b]pyridine] |
| 92 nM | 1410 nM | [2H]C([2H])([2H])OC[C@@]1(F)CCc2c(-c3cc(C)nc4[nH]ncc34)c(-c3ccc(F)cn3)nn2C1 (single isomer, unassigned) [Example 311, (*R)-4-(6-Fluoro-2-(5-fluoropyridin-2-yl)-6-((methoxy-d3)methyl)-4,5,6,7-tetrahydropyrazolo[1,5-a]pyridin-3-yl)-6-methyl-1H-pyrazolo[3,4-b]pyridine] |
| 13 nM | 373 nM | Cc1nc(-c2c(-c3ccc(F)cc3)nn3c2CC[C@@]2(C3)CC2(F)F)c2cn[nH]c2n1 (single isomer, unassigned) [Example 335, (*S)-2,2-Difluoro-2′-(4-fluorophenyl)-3′-(6-methyl-1H-pyrazolo[3,4-d]pyrimidin-4-yl)-4′,5′-dihydro-7′H-spiro[cyclopropane-1,6′-pyrazolo[1,5-a]pyridine]] |
| 35 nM | 573 nM | Cc1nc(-c2c(-c3ccc(F)cn3)nn3c2CC[C@@H]2C[C@@H]23)c2cn[nH]c2n1 (relative stereo) [Example 347, (5a*R,6a*S)-2-(5-fluoropyridin-2-yl)-3-(6-methyl-1H-pyrazolo[3,4-d]pyrimidin-4-yl)-5,5a,6,6a-tetrahydro-4H-cyclopropa[e]pyrazolo[1,5-a]pyridine] |
| 2 nM | 12 nM | COCC1(F)CCc2c(-c3cc(C)nc4[nH]ccc34)c(-c3ccc(F)cn3)nn2C1 (single isomer, unassigned) [Example 298, (*S)-4-[6-Fluoro-2-(5-fluoro-2-pyridyl)-6-(methoxymethyl)-5,7-dihydro-4H-pyrazolo[1,5-a]pyridin-3-yl]-6-methyl-1H-pyrrolo[2,3-b]pyridine] |
| 241 nM | > 10000 nM | O=C1OCCn2nc(-c3ccc(F)cn3)c(-c3ccnc4[nH]ncc34)c21 [Example 182, 2-(5-Fluoro-2-pyridyl)-3-(1H-pyrazolo[3,4-b]pyridin-4-yl)-6,7-dihydropyrazolo[5,1-c][1,4]oxazin-4-one] |
| 1 nM | 17 nM | Cc1cc(-c2c(-c3ccc(F)cc3)nn3c2OCCC3)c2cn[nH]c2n1 [Example 185, 2-(4-Fluorophenyl)-3-(6-methyl-1H-pyrazolo[3,4-b]pyridin-4-yl)-6,7-dihydro-5H-pyrazolo[5,1-b][1,3]oxazine] |
| 2 nM | 4 nM | Cc1cc(-c2c(-c3ccc(F)cc3)nn3c2C2CCC3CC2)c2cn[nH]c2n1 [Example 66, 2-(4-Fluorophenyl)-3-(6-methyl-1H-pyrazolo[3,4-b]pyridin-4-yl)-4,5,6,7-tetrahydro-4,7-ethanopyrazolo[1,5-a]pyridine] |
| 1 nM | 5 nM | Fc1ccc(-c2nn3c(c2-c2ccnc4[nH]ncc24)CC2(C3)CC2(F)F)cc1 (single isomer, unassigned) [Example 250, (*S)-1′,1′-Difluoro-2-(4-fluorophenyl)-3-(1H-pyrazolo[3,4-b]pyridin-4-yl)spiro[4,6-dihydropyrrolo[1,2-b]pyrazole-5,2′-cyclopropane]] |
| 4 nM | 134 nM | CC[C@]1(C)Cn2nc(-c3ccc(F)cn3)c(-c3ccnc4[nH]ncc34)c2CO1 (single isomer, unassigned) [Example 169, (*R)-6-Ethyl-2-(5-fluoropyridin-2-yl)-6-methyl-3-(1H-pyrazolo[3,4-b]pyridin-4-yl)-6,7-dihydro-4H-pyrazolo[5,1-c][1,4]oxazine] |
| 7 nM | 79 nM | Fc1ccc(-c2nn3c(c2-c2ccnc4[nH]ncc24)C[C@@H](F)C3)cc1 [Example 228, 4-[(5R)-5-Fluoro-2-(4-fluorophenyl)-5,6-dihydro-4H-pyrrolo[1,2-b]pyrazol-3-yl]-1H-pyrazolo[3,4-b]pyridine] |
| 1 nM | 4 nM | Cc1cc(-c2c(-c3ccc(F)cc3)nn3c2COC(C)(C)C3)c2cn[nH]c2n1 [Example 145, 2-(4-Fluorophenyl)-6,6-dimethyl-3-(6-methyl-1H-pyrazolo[3,4-b]pyridin-4-yl)-6,7-dihydro-4H-pyrazolo[5,1-c][1,4]oxazine] |
| 2 nM | 8 nM | CC1(C)Cn2nc(-c3ccc(F)cn3)c(-c3ccnc(NC(=O)CC(F)(F)F)c3)c2CO1 [Example 133, 3,3,3-Trifluoro-N-(4-(2-(5-fluoropyridin-2-yl)-6,6-dimethyl-6,7-dihydro-4H-pyrazolo[5,1-c][1,4]oxazin-3-yl)pyridin-2-yl)propenamide] |
| 197 nM | 10800 nM | Fc1ccc(-c2nn3c(c2-c2ccnc4[nH]nc(Cl)c24)CC2(C3)CC2(F)F)nc1 (single isomer, unassigned) [Example 257, (*R)-3-(3-Chloro-1H-pyrazolo[3,4-b]pyridin-4-yl)-1′,1′-difluoro-2-(5-fluoro-2-pyridyl)spiro[4,6-dihydropyrrolo[1,2-b]pyrazole-5,2′-cyclopropane]] |
| 99 nM | 1490 nM | Fc1ccc(-c2nn3c(c2-c2ccnc4cn[nH]c24)CCC3)nc1 [Example 220, 7-[2-(5-Fluoro-2-pyridyl)-5,6-dihydro-4H-pyrrolo[1,2-b]pyrazol-3-yl]-1H-pyrazolo[4,3-b]pyridine] |
| 10 nM | 297 nM | Cc1cc(-c2c(-c3ccc(F)cc3)nn3c2COC[C@@H]3C)c2cn[nH]c2n1 (single isomer, unassigned) [Example 93, (*S)-2-(4-Fluorophenyl)-7-methyl-3-(6-methyl-1H-pyrazolo[3,4-b]pyridin-4-yl)-6,7-dihydro-4H-pyrazolo[5,1-c][1,4]oxazine] |
| 8 nM | 192 nM | C[C@H]1CCc2c(-c3ccnc4[nH]ncc34)c(-c3ccc(F)cn3)nn21 [Example 19, 4-[(6S)-2-(5-Fluoro-2-pyridyl)-6-methyl-5,6-dihydro-4H-pyrrolo[1,2-b]pyrazol-3-yl]-1H-pyrazolo[3,4-b]pyridine] |
| 2 nM | 24 nM | Fc1ccc(-c2nn3c(c2-c2ccnc4[nH]ncc24)CO[C@@H](C(F)(F)F)C3)cc1 [Example 101, (R)-2-(4-Fluorophenyl)-3-(1H-pyrazolo[3,4-b]pyridin-4-yl)-6-(trifluoromethyl)-6,7-dihydro-4H-pyrazolo[5,1-c][1,4]oxazine] |
| 2 nM | 18 nM | Cc1nc(-c2c(-c3ccc(F)cc3)nn3c2COC(C)(C)C3)c2cn[nH]c2n1 [Example 394, 2-(4-Fluorophenyl)-6,6-dimethyl-3-(6-methyl-1H-pyrazolo[3,4-d]pyrimidin-4-yl)-4,7-dihydropyrazolo[5,1-c][1,4]oxazine] |
| 23 nM | 345 nM | COc1ccc2nccc(-c3c(-c4ccc(F)cn4)nn4c3CC[C@@H]4C)c2n1 [Example 22, 8-[(6S)-2-(5-Fluoro-2-pyridyl)-6-methyl-5,6-dihydro-4H-pyrrolo[1,2-b]pyrazol-3-yl]-2-methoxy-1,5-naphthyridine] |
| 37 nM | 112 nM | [2H]C([2H])([2H])[C@@]1(C#N)CCc2c(-c3ccnc4[nH]ncc34)c(-c3ccc(F)cn3)nn2C1 (single isomer, unassigned) [Example 324, (*R)-2-(S-Fluoropyridin-2-yl)-6-(methyl-d3)-3-(1H-pyrazolo[3,4-b]pyridin-4-yl)-4,5,6,7-tetrahydropyrazolo[1,5-a]pyridine-6-carbonitrile] |
| 6 nM | 75 nM | CCC(=O)Nc1cc(-c2c(-c3ccc(F)cn3)nn3c2OCCC3)ccn1 [Example 439, N-(4-(2-(5-Fluoropyridin-2-yl)-6,7-dihydro-5H-pyrazolo[5,1-b][1,3]oxazin-3-yl)pyridin-2-yl)propionamide] |
| 21 nM | 279 nM | Cc1cc(-c2c(-c3ccc(F)cc3)nn3c2CC2(C3)CC2(F)F)c2cn[nH]c2n1 (single isomer, unassigned) [Example 253, (*R)-1′.1′-Difluoro-2-(4-fluorophenyl)-3-(6-methyl-1H-pyrazolo[3,4-b]pyridin-4-yl)spiro[4,6-dihydropyrrolo[1,2-b]pyrazole-5,2′-cyclopropane]] |
| 69 nM | 597 nM | Cc1n[nH]c2nccc(-c3c(-c4ccc(F)cc4)nn4c3OCC3(C4)CC3(F)F)c12 (single isomer, unassigned) [Example 472, (*S)-2,2-Difluoro-2′-(4-fluorophenyl)-3′-(3-methyl-1H-pyrazolo[3,4-b]pyridin-4-yl)-5′H,7′H-spiro[cyclopropane-1,6′-pyrazolo[5,1-b][1,3]oxazine]] |
| 2 nM | 7 nM | [2H]C([2H])([2H])C1(C([2H])([2H])[2H])CCc2c(-c3ccnc4[nH]ncc34)c(-c3ccc(F)cn3)nn2C1 [Example 283, 4-(2-(5-fluoropyridin-2-yl)-6,6-bis(methyl-d3)-4,5,6,7-tetrahydropyrazolo[1,5-a]pyridin-3-yl)-1H-pyrazolo[3,4-b]pyridine] |
| < 0.5 nM | 1 nM | CC1(C)COc2c(-c3ccnc4[nH]ncc34)c(-c3ccc(F)cc3)nn2C1 [Example 212, 2-(4-Fluorophenyl)-6,6-dimethyl-3-(1H-pyrazolo[3,4-b]pyridin-4-yl)-6,7-dihydro-5H-pyrazolo[5,1-b][1,3]oxazine] |
| 1 nM | 3 nM | CC(=O)Nc1cc(-c2c(-c3ccc(F)cc3)nn3c2CCC2C3C2(F)F)ccn1 (racemic) [Example 348, N-(4-(6,6-Difluoro-2-(4-fluorophenyl)-5,5a,6,6a-tetrahydro-4H-cyclopropa[e]pyrazolo[1,5-a]pyridin-3-yl)pyridin-2-yl)acetamide] |
